Test results from patent publication US9669016B2, “Antiparasitic effect of Bis[3,5-Bis(Benzylidene)-4-Oxo-1-Piperidinyl]amide Derivatives” (priority 2014, dated 2017).
Where two headings read alike, the source gives them in different places.

Assays:
[1] = test system: L. major promastigotes; test: Mitoprobe JC-1 mitochondrial membrane potential assay; format: cell-based, Leishmania major; settings: three concentrations, four hours
Protocol: L. major promastigotes and intraperitoneal macrophages from BALB/c mice were treated with each compound at three concentrations for four hours. Then, cells were stained with 2 μM of the fluorophore 5,5′,6,6′-tetrachloro-1,1′,3,3′-tetraethylbenzimidazolylcarboncyanine iodide (JC-1) following a modified version of manufacturer's instruction (Life Technologies, Grand Island, N.Y.). The disruption of mitochondrial Δψm is evidenced by an appreciable shift of the fluorescence signal from red to green. JC-1 aggregates or monomers, emitting red or green signal, were identified via flow cytometer (Cytomics Fc500) by using FL-2 or FL-1 detectors, respectively. A proton ionophore that dissipates the mitochondrial Δψm carbonyl cyanide 3-chlorophenylhydrazone (CCCP) at 50 μM, was used as a positive control. Cells treated with the diluent of the compounds (DMSO) and untreated were used as negative controls. Data collection and analysis was performed by using CXP software (Beckman Coulter). JC-1 is the most widely applied method for detecting mitochondrial depolarization occurring in the early stages of apoptosis.

[2] = test system: BALB/c intraperitoneal macrophages; test: Viability assay (Alamar Blue) on peritoneal murine macrophages; format: cell-based; settings: Mus musculus, Macrophage; read-out: Mammalian cells IC50 ± SD, Peritoneal Murine Macrophages
Protocol: (§1) Viability assay on mammalian cells and T. cruzi epimastigotes. The cytotoxicity and anti-trypanosomal activity of the NC compounds was tested in human Hs27 fibroblasts (ATCC CRL-1634), LLC-MK2 cells (ATCC CCL-7), RAW 264.7 murine macrophages (ATCC TIB71) (American Type Culture Collection-ATCC, Manassa, Va.), mice intraperitoneal macrophages and in epimastigote forms of T. cruzi Y strain using Alamar Blue assay (Invitrogen—Life Technology, Grand Island, N.Y.). The experiments were performed as described using a range of concentration of 500 μM to 1 nM.

[3] = test system: T. cruzi epimastigotes; test: Viability assay (Alamar Blue) on T. cruzi epimastigotes; format: cell-based; settings: Trypanosoma cruzi
Protocol: as §1

[4] = test system: T. cruzi intracellular amastigotes; test: High-content imaging infectivity assay, T. cruzi amastigote-infected human osteoblasts; format: cell-based, Trypanosoma cruzi; settings: for IC50: Trypanosoma cruzi, Osteoblast; for parasite burden / percentage of infected cells, T. cruzi infected mammalian cells: human osteoblasts, 48 h
Protocol: Human osteoblasts were infected with T. cruzi trypomastigotes and were treated with each compound at multiple concentrations for 48 hours.
(§2) In vitro evaluation of the NC drug library on infectivity experiments by high-content imaging assay. Mice intraperitoneal macrophages and human osteoblasts were placed in a microplate and infected with the amastigote forms of L. major strain Friedlin clone V1 and T. cruzi Y strain respectably, followed by treatment with NC lead compounds (as shown in Table 1). Briefly, Image acquisition and analyses of the plates were carried out using the BD Pathway 855 high-resolution fluorescence bioimager system (BD Biosciences). Filter sets appropriate for the excitation and emission spectra of Draq5 were utilized. Images from […] (3×3 montage) were acquired per well with a 20× objective. To perform the host cell segmentation and counting of parasites, the BD AttoVision™ v1.6.2 Sub Object analysis was used. Draq5 creates a background, staining the host cell and parasite nucleus, but defining the cytoplasm as well, determining this way the amount of parasites within each mammalian cell. The host cell nucleus was excluded by size difference. Subsequently, the infection index was calculated based on the mean of these triplicate values by multiplying the percentage of infected cells and the constraints used in the HCIA assay that was of 2, 3, 5, and 8 parasites per cell.

[5] = test system: LLC-MK2 cells; test: Viability assay (Alamar Blue) on LLC-MK2 cells; format: cell-based, Rhesus monkey; settings: Macaca mulatta, read-out: Mammalian cells IC50 ± SD, LLC-MK2
Protocol: Rhesus monkey kidney epithelial cell LLC-MK2 (American Type Culture Collection-ATCC, Manassas, Va. # CCL-7), Hs-27 human fibroblasts (American Type Culture Collection-ATCC, Manassas, Va.), RAW 264.7 murine macrophages (American Type Culture Collection-ATCC, Manassas, Va.) U2-09 human osteoblasts (American Type Culture Collection-ATCC, Manassas, Va. # HTB-99) (American Type Culture Collection-ATCC, Manassas, Va.) cells were cultured in Dulbecco's Modified Eagle's Medium (DMEM), supplemented with 10% inactivated FBS, along with 1% of 10,000 units/ml penicillin and 10 mg/ml streptomycin in 0.9% sodium chloride. Intraperitoneal BALB/c mice macrophages were obtained and cultured in DMEM high-glucose, +L-glu, supplemented with 10% FBS (inactivated). The procedure was performed minimizing the distress and pain for the animals following the NIH guidance and animal protocol approved by UTEP's Institutional Animal Care and Use Committee (IACUC).
as §1
The statistical significance (p-value) of the compound's cytotoxicity was calculated using the General Linear Mixed Model Analysis. This analysis was used to test the linear effect of the logarithm of dose on the logit transformation of the percent survival. The IC50 was obtained as the exponent of the negative ratio of the y-intercept and the slope of the fitted regression line (SAS Software, Version 9.2). […] All experiments had statistical significance determined at p≦0.05(*), p≦0.01(**), and p≦0.001(***).

[6] = test system: L. major promastigotes; test: Annexin V/PI assay on L. major promastigotes; format: cell-based, Leishmania major; settings: 24 h; NC901 2.5 μM, NC884 2.5 μM, NC2459 312 nM
Protocol: (§3) Apoptosis was evaluated using Alexa Fluor® 488 Annexin V/PI Apoptosis Kit (Initrogen™-Life technology, Grand Island, N.Y.). L. major promastigotes and BALB/c mice intraperitoneal macrophages were treated with each compound for 24 h. After exposure, the parasites (5×10^7) and macrophages (5×10^6) were harvested, washed and re-suspended with PBS. The Annexin V/PI staining of cells followed the manufacturer's instructions. Then the samples were analyzed with Beckman Coulter Fc500 flow cytometer (Beckman Coulter, USA). The results were expressed as the number of annexin positive cells per thousand cells counted.

[7] = test system: L. major intracellular amastigotes; test: High-content imaging infectivity assay, L. major amastigote-infected macrophages; format: cell-based, Leishmania major; settings: for most effective concentration against L. major intracellular amastigotes / IC50: 48 h treatment; for IC50: Leishmania major, Peritoneal macrophage, in Mus musculus, in BALB/c peritoneal macrophages; for percentage of infected macrophages vs 1% DMSO control: constraints 2, 5 and 8 or more amastigotes per macrophage; for effectiveness compared with positive control amphotericin B 5 μM: percentage of infected macrophages, NC901, NC884 at 5 μM
Protocol: In vitro infectivity experiments were carried out to determine the activity of compounds NC901, NC884, and NC2459 against L. major intracellular amastigotes. Intraperitoneal macrophages isolated from BALB/c mice were infected with L. major metacyclic promastigotes. After the parasites were allowed to establish infection for 48 hours, the compounds were added and incubated for an additional 48 hours. The compounds anti-leishmanial activity was evaluated using the BD Pathway Bioimager™. In the analysis several constraints were used, such as 2, 5, and 8 or more amastigotes per macrophage.
as §2

[8] = test system: BALB/c mice intraperitoneal macrophages; test: Annexin V/PI assay on intraperitoneal macrophages; format: cell-based, mouse
Protocol: as §3

[9] = 96 h incubation, read-out: T. cruzi Epimastigotes EC50
[10] = 96 hour incubation, read-out: EC50, T. cruzi epimastigotes
[11] = in human osteoblasts, 48 h treatment, read-out: T. cruzi Intracellular Amastigotes IC50
[12] = same concentrations as in L. major promastigotes, 24 h

Row | Structure (SMILES) | mitochondrial membrane potential (Δψm) vs 1% DMSO [1] | IC50 [2] [nM] | EC50 [3, 9] [nM] | EC50 [3, 10] [nM] | IC50 [4, 11] [nM] | parasite burden / percentage of infected cells, T. cruzi infected mammalian cells ([4]; 3 or more amastigotes per cell) | IC50 [5] [nM] | annexin V binding (apoptosis-like effect) vs 1% DMSO [6] | most effective concentration against L. major intracellular amastigotes [7] [µM] | IC50 [7] [nM] | percentage of infected macrophages vs 1% DMSO control [7] | effectiveness compared with positive control amphotericin B 5 μM [7] | annexin V positive cells in macrophages [8, 12] | annexin V positive cells in macrophages [8] | IC50 ([4]; 48 hours, 3 or more amastigotes per cell, read-out: IC50, T. cruzi amastigote-infected human osteoblasts) [nM]
1 | CN(C)CC1CCC(CN(C)C)C1=O (stereo not shown) [NC884] | concentration dependent loss in Δψm | 7670 ± 310 | 475 | 475 | 987 ± 110 | significantly reduced the parasite burden | 15100 ± 330 | significantly induced an apoptosis-like effect | 5 | 937 ± 130 | significant decrease in the percentage of infected cells | not as effective as the positive control amphotericin B | No effect |  | 
2 | CN(C)CC1CCCC(CN(C)C)C1=O (stereo not shown) [NC901] | concentration dependent loss in Δψm | 7030 ± 420 | 468 | 468 | 301 ± 90 | significantly reduced the parasite burden | 8020 ± 250 | significantly induced an apoptosis-like effect | 5 | 1870 ± 200 | significant decrease in the percentage of infected cells | not as effective as the positive control amphotericin B |  | No effect | 
3 | O=C1/C(=C/c2ccccc2)CN(C(=O)C(=O)N2C/C(=C\c3ccccc3)C(=O)/C(=C/c3ccccc3)C2)C/C1=C\c1ccccc1 [NC2459] | concentration dependent loss in Δψm | 5450 ± 360 | 20 | 20 | 227 ± 40 | significantly reduced the parasite burden | 2000 ± 93 | significantly induced an apoptosis-like effect | 1.25 | 625 ± 110 | significant decrease in the percentage of infected cells | significantly more effective | No effect |  | 227
